Results on two substances are retold here after US20120035203A1, “BUTACLAMOL FOR THE TREATMENT OF AMYOTROPHIC LATERAL SCLEROSIS” (CAMBRIA PHARMACEUTICALS, INC., priority 2009, published 2012).

In test [1] the test system is PC12 cells that express mutant G93A SOD1 as a YFP fusion protein. The test can be described thus: high throughput cytotoxicity protection assay. On the procedure: This idea was tested by examining the sensitivity of PC12 cells to SOD1 aggregates in the presence and absence of proteasome inhibitor MG132. PC12 cells expressing no SOD1, wild type SOD1, G85R SOD1 or G93A SOD1 were grown with or without MG132 (FIG. 1). […] The ability of protein aggregates to induce cell death was examined by treating G93A SOD1-expressing cells with MG132 for 24 h, removing the MG132 by washing and assaying cell viability after another 24 h.
PC12 cells expressing G93A SOD1 were treated with 100 nM MG132 with or without co-treatment with geldanamycin or radicicol.

Test [2] relates to [3H] dopamine binding sites. The following applies: cited from earlier work.
For test [3] the following is noted: high doses; cited from earlier work.
Test [4] deals with [3H] haloperidol binding sites. The following applies: cited from earlier work.
Test [5] relates to rats with unilateral lesions in the substantia nigra. The following applies: at 100 to 500 times larger doses than the (+) enantiomer; cited from earlier work.

With (+) butaclamol, the “activity in the protection assay” value in test [1] is given as “showed activity”. The results for the “times more potent than the (−) isomer” value in test [2] and in test [4] were “about one hundred” and “one thousand”, respectively. In addition, in test [3], the “effect on epinephrine-induced mortality” value is listed as “antagonized epinephrine-induced mortality”.
On to (−) butaclamol, for which, in test [5], the behavioral activity entry is recorded as “devoid of behavioral activity”. For the same substance, in test [1], the “activity in the protection assay” value was “only the eutomer (+butaclamol) showed activity”. Besides, in test [3], the “effect on epinephrine-induced mortality” value was “devoid of any such activity”.
